This data set in a line: xn = mol fraction of the nth substance listed.

Structures are written as SMILES. ± gives the uncertainty stated by the source.

One may read the viscosity as the internal friction of a fluid under shear. A higher viscosity goes with a thick fluid.

Turning to `CCCC[n+]1ccn(C)c1.F[P-](F)(F)(F)(F)F` + OCC(F)(F)F, the viscosity by setting is: (278.15 K, 101 kPa, x2 = 0) 1165 ± 51 mPa·s; (283.15 K, 101 kPa, x2 = 0) 774 ± 30 mPa·s; (288.15 K, 101 kPa, x2 = 0) 533 ± 19 mPa·s; (293.15 K, 101 kPa, x2 = 0) 378 ± 12 mPa·s; (298.15 K, 101 kPa, x2 = 0) 274 ± 8 mPa·s; (303.15 K, 101 kPa, x2 = 0) 203 ± 5 mPa·s. Also, the viscosity runs as follows: (308.15 K, 101 kPa, x2 = 0) 154 ± 4 mPa·s; (313.15 K, 101 kPa, x2 = 0) 119 ± 3 mPa·s; (318.15 K, 101 kPa, x2 = 0) 93.5 ± 2 mPa·s; (323.15 K, 101 kPa, x2 = 0) 74.6 ± 1.5 mPa·s; (328.15 K, 101 kPa, x2 = 0) 60.4 ± 1.2 mPa·s; (333.15 K, 101 kPa, x2 = 0) 49.5 ± 1 mPa·s.
The molecule `CCCC[n+]1ccn(C)c1.O=S(=O)([N-]S(=O)(=O)C(F)(F)F)C(F)(F)F` + OCC(F)(F)F had a viscosity (283.15 K, 101 kPa, x2 = 0) of 107 ± 2 mPa·s.
Consider `CC[n+]1ccn(C)c1.O=S(=O)([O-])O` + OCC(O)CO, for which the viscosity reads like this: (298.15 K, 100 kPa, x1 = 0.33) 320 ± 26 mPa·s; (303.15 K, 100 kPa, x1 = 0.33) 232 ± 16 mPa·s; (308.15 K, 100 kPa, x1 = 0.33) 168 ± 9 mPa·s; (313.15 K, 100 kPa, x1 = 0.33) 127 ± 5 mPa·s; (318.15 K, 100 kPa, x1 = 0.33) 99 ± 3 mPa·s; (323.15 K, 100 kPa, x1 = 0.33) 78 ± 2 mPa·s.
As to `Cn1cc[nH+]c1.[Cl-]` + OCC(O)CO, the viscosity reads like this: (298.15 K, 100 kPa, x1 = 0.333) 126.1 ± 2.8 mPa·s; (313.15 K, 100 kPa, x1 = 0.333) 70.3 ± 0.8 mPa·s; (333.15 K, 100 kPa, x1 = 0.333) 35 ± 0.4 mPa·s.
Turning to `CC[n+]1ccn(C)c1.O=S(=O)([O-])O` + OCCO, the viscosity is 15 ± 1 mPa·s (303.15 K, 100 kPa, x1 = 0.125); 76 ± 4 mPa·s (303.15 K, 100 kPa, x1 = 0.5); 24 ± 1 mPa·s (308.15 K, 100 kPa, x1 = 0.25); 12 ± 1 mPa·s (313.15 K, 100 kPa, x1 = 0.143); 30 ± 1 mPa·s (313.15 K, 100 kPa, x1 = 0.33); 12 ± 1 mPa·s (318.15 K, 100 kPa, x1 = 0.167). The molecule also gave a viscosity (323.15 K, 100 kPa, x1 = 0.33) of 21 ± 1 mPa·s.
Consider `CCCC[n+]1ccn(C)c1.F[P-](F)(F)(F)(F)F` + OCCOCCOCCOCCO, for which the viscosity (298.15 K, 101 kPa, x2 = 0) worked out at 254 ± 15 mPa·s.
Where the note is “298.15 K, 101 kPa, x2 = 0”, `CCCC[n+]1ccn(C)c1.O=S(=O)([N-]S(=O)(=O)C(F)(F)F)C(F)(F)F` + OCCOCCOCCOCCO gave a viscosity of 45.3 ± 1.1 mPa·s.
Regarding `CCCC[n+]1ccn(C)c1.F[P-](F)(F)(F)(F)F` + OC[C@H]1O[C@H](O[C@H]2[C@H](O)[C@@H](O)C(O)O[C@@H]2CO)[C@H](O)[C@@H](O)[C@@H]1O + O, the viscosity (293.15 K, 100 kPa, x1 = 0.0001838, x2 = 0) is recorded as 1.011 ± 0.041 mPa·s; the viscosity (293.15 K, 100 kPa, x1 = 0.0005385, x2 = 0) was 1.025 ± 0.042 mPa·s; the viscosity (293.15 K, 100 kPa, x1 = 0.0008966, x2 = 0) was found to be 1.038 ± 0.043 mPa·s; the viscosity (293.15 K, 100 kPa, x1 = 0.001262, x2 = 0) worked out at 1.041 ± 0.043 mPa·s; the viscosity (298.15 K, 100 kPa, x1 = 0.0001838, x2 = 0) is on record as 0.905 ± 0.037 mPa·s; the viscosity (298.15 K, 100 kPa, x1 = 0.0005385, x2 = 0) came out at 0.916 ± 0.038 mPa·s. The viscosity runs as follows: (298.15 K, 100 kPa, x1 = 0.0008966, x2 = 0) 0.922 ± 0.038 mPa·s; (298.15 K, 100 kPa, x1 = 0.001262, x2 = 0) 0.932 ± 0.038 mPa·s; (303.15 K, 100 kPa, x1 = 0.0001838, x2 = 0) 0.821 ± 0.034 mPa·s; (303.15 K, 100 kPa, x1 = 0.0005385, x2 = 0) 0.826 ± 0.034 mPa·s; (303.15 K, 100 kPa, x1 = 0.0008966, x2 = 0) 0.83 ± 0.034 mPa·s; (303.15 K, 100 kPa, x1 = 0.001262, x2 = 0) 0.843 ± 0.035 mPa·s. Besides, the viscosity runs as follows: (308.15 K, 100 kPa, x1 = 0.0001838, x2 = 0) 0.742 ± 0.03 mPa·s; (308.15 K, 100 kPa, x1 = 0.0005385, x2 = 0) 0.744 ± 0.031 mPa·s; (308.15 K, 100 kPa, x1 = 0.0008966, x2 = 0) 0.75 ± 0.031 mPa·s; (308.15 K, 100 kPa, x1 = 0.001262, x2 = 0) 0.761 ± 0.031 mPa·s; (313.15 K, 100 kPa, x1 = 0.0001838, x2 = 0) 0.661 ± 0.027 mPa·s; (313.15 K, 100 kPa, x1 = 0.0005385, x2 = 0) 0.674 ± 0.028 mPa·s. Besides, the viscosity by setting is: (313.15 K, 100 kPa, x1 = 0.0008966, x2 = 0) 0.677 ± 0.028 mPa·s; (313.15 K, 100 kPa, x1 = 0.001262, x2 = 0) 0.683 ± 0.028 mPa·s.
As to `Cn1cc[nH+]c1.[Cl-]` + [Cl][Al]([Cl])[Cl], the electrical conductivity by setting is: (303.15 K, 101 kPa, x2 = 0.667) 0.709 ± 0.007 S/m; (313.15 K, 101 kPa, x2 = 0.643) 0.782 ± 0.008 S/m. Also, the viscosity reads like this: (303.15 K, 101 kPa, x2 = 0.667) 32.79 ± 0.48 mPa·s; (313.15 K, 101 kPa, x2 = 0.643) 31.87 ± 0.44 mPa·s.
The molecule `CCCC[n+]1ccn(C)c1.F[P-](F)(F)(F)(F)F` + c1ccccc1 registered a viscosity (313.2 K, 100 kPa, x2 = 0.6008) of 7.7 ± 0.4 mPa·s.
Regarding `CCCC[n+]1ccn(C)c1.F[P-](F)(F)(F)(F)F` + c1ccncc1, where the note is “298.15 K, 101 kPa, x2 = 0.4915”, the electrical conductivity was determined as 0.819 ± 0.098 S/m and the viscosity is 21.8 ± 2.2 mPa·s.
With `CCCC[n+]1ccn(C)c1.O=S(=O)([N-]S(=O)(=O)C(F)(F)F)C(F)(F)F` + c1ccsc1, under “328.15 K, 100 kPa, x2 = 0”, the viscosity amounted to 17.98 ± 0.96 mPa·s.

For the origin of these results see the CheMixHub ionic liquid set.
